Measurements reported in PubChem BioAssay (NCI).
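Values below derive from 48-hour exposures of cells grown in 96-well plates, with endpoints linearly interpolated between the two concentrations bracketing the appropriate inhibition level. TGI denotes the concentration required for complete inhibition of growth.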

Tests used:
Test in all cases: NCI-60 cell line screen, 48 h
SF-295 CNS = system: SF-295 CNS
SF-539 CNS = system: SF-539 CNS
HT29 colon = system: HT29 colon
HL-60(TB) leukemia = system: HL-60(TB) leukemia
KM12 colon = system: KM12 colon
MALME-3M melanoma = system: MALME-3M melanoma
HOP-92 NSCLC = system: HOP-92 NSCLC
CCRF-CEM leukemia = system: CCRF-CEM leukemia
SK-MEL-5 melanoma = system: SK-MEL-5 melanoma
HS 578T breast = system: HS 578T breast

SMILES	TGI (SF-295 CNS) [µM]	TGI (SF-539 CNS) [µM]	TGI (HT29 colon) [µM]	TGI (HL-60(TB) leukemia) [µM]	TGI (KM12 colon) [µM]	TGI (MALME-3M melanoma) [µM]	TGI (HOP-92 NSCLC) [µM]	TGI (CCRF-CEM leukemia) [µM]	TGI (SK-MEL-5 melanoma) [µM]	TGI (HS 578T breast) [µM]
CCOC(=O)c1c(SCCN(CC)CC)n(-c2ccccc2)c(=S)n(-c2ccccc2)c1=O	> 100	9.11	12.6	3.61	28.5	3.06	4.15	3.34	7.6	28
CO/C(N)=C(\C#N)N=Cc1cccs1	> 100	> 100	> 100	65.4	> 100	> 100	> 100	> 100	> 100	> 100
COC(=O)c1ccccc1NCc1cc(O)ccc1O	33.3	34.9	44.2	> 42.8	53.2	36.3	35.3	> 46.3	38.9	61.5
CCN(CCCl)c1ccc(NC(=O)c2cc(C(=O)NCCN(C)C)cc(C(=O)Nc3ccc(N(CC)CCCl)cc3)c2)cc1	72.3	12.3	11.8	3.19	25.4	34.5	29.8	3.27	30.7	12.4
Clc1cc2ncn(C3CCCO3)c2cc1Cl (stereo not given)	> 100	> 100	> 100	> 100	> 100	> 100	> 100	> 100	> 100	> 100
N/N=C(\N)SCc1ccc(N=C=S)cc1	> 100	> 100	> 100	> 100	> 100	> 100	> 100	> 100	> 100	> 100
CCOP(=O)(OCC)/C(C#N)=C(\C)c1ccco1	> 10	> 10	> 10	> 10	> 10	> 10	> 10	> 10	> 10	> 10
CCc1nc2cc(F)ccc2[nH]c1=O	> 100	> 100	> 100	> 100	> 100	> 100	> 100	> 100	> 100	> 100
CCN(CC)CCCNc1nnc(C)c2[nH]c3ccccc3c12	62.5	5.86	56.1	27.4	> 100	29.3	55	63.9	27.8	38
CC(=O)Oc1cc(OC(C)=O)c2c(c1C)CC[C@@H]1[C@@H]2CC[C@]2(C)[C@@H](OC(C)=O)CC[C@@H]12	38	30.4	29.8	54.6	31.5	29.2	35.2	49.4	30.8	53.2
CCCCCCCCCCCCCCCC(=O)OCC(COP(=O)(O)OCCNC(=O)CCSSc1ccccn1)OC(=O)CCCCCCCCCCCCCCC (stereo not given)	> 100	> 100	> 100	> 100	> 100	> 100	> 100	> 100	> 100	> 100
CCOC(=O)C1(NC(=O)OC(C)(C)C)CCc2[nH]oc(=O)c2C1 (stereo not given)	> 100	> 100	> 100	> 100	> 100	> 100	> 100	> 100	> 100	> 100
Nc1nc(Nc2cc(F)c(Cl)c(F)c2)cc(=O)[nH]1	> 100	> 100	> 100	> 100	> 100	> 100	> 100	> 100	> 100	66.5
CC(C)=C[C@@H]1C[C@H](C)[C@H]2CC[C@H](C)[C@H]3C(=O)C(O)=C(C)C(=O)[C@]123	> 100	> 100	> 100	> 100	> 100	> 100	> 100	> 100	> 100	> 100
CCc1n[nH]c(=O)n1-c1ccncc1	> 100	> 100	> 100	> 100	> 100	> 100	> 100	> 100	> 100	> 100
Cc1nnc(N)s/c1=N/O	> 100	> 100	> 100	> 100	> 100	> 100	> 100	> 100	> 100	> 100
C(/Cc1ccc2c(c1)OCO2)=N\NC1=NCCCCN1	> 100	> 100	> 100	> 100	> 100	> 100	> 100	> 100	58.2	> 100
